Assay results as given in US20060030603A1, “Novel aryl urea analogs and use thereof as antibacterial agents” (priority 2004, published 2006).
In brackets after ≈: the same amount, converted by molar mass. Read-outs that look alike come from different tables or passages of the source.

What was measured:
S. aureus ATCC 13709 = assay: MIC assay, S. aureus; type: cell-based
Method: (§1) In vitro structure/activity relationship (“SAR”) tests were performed according to the following procedure: MIC assays were carried out in a 150 μL volume in duplicate in 96-well clear flat-bottom plates. The bacterial suspension from an overnight culture growth in the appropriate medium was added to a solution of test compound in 0.5% DMSO in water. Final bacterial inoculum was approximate 10^3-10^4 CFU/well. The percentage growth of the bacteria in the test wells relative to that observed for a control well containing no compound was determined by measuring absorbance at 595 nm (A595) after 20-24 h at 37° C. […] The bacterial strains used for the assays include S. aureus ATCC 13709, S. pyogenes ATCC 49399, E. faecalis ATCC 29212, E. faecium ATCC 6569, E. coli ATCC 25922, K. pneumoniae ATCC 13383, P. vulgaris ATCC 8427, P. aeruginosa ATCC 25416. The results of the in vitro SAR tests are in Tables 1-3.

K. pneumoniae ATCC 13383 = assay: MIC assay, K. pneumoniae; type: cell-based
Method: as §1

E. coli ATCC 25922 = assay: MIC assay, E. coli; type: cell-based
Method: as §1

S. pyogenes ATCC 49399 = assay: MIC assay, S. pyogenes; type: cell-based
Method: as §1

P. vulgaris ATCC 8427 = assay: MIC assay, P. vulgaris; type: cell-based
Method: as §1

E. faecalis ATCC 29212 = assay: MIC assay, E. faecalis; type: cell-based
Method: as §1

E. faecium ATCC 6569 = assay: MIC assay, E. faecium; type: cell-based
Method: as §1

log P = type: physicochemical
P. aeruginosa ATCC 25416 = assay: MIC assay, P. aeruginosa; type: cell-based
Method: as §1

S. aureus (ATCC 13709) = assay: Mouse Protection Assay (lethal murine model of bacterial infection); type: in vivo, ICR-CD-1 female mice; details: 1 × 2 mg/Kg, positive control, 1 h and 3 h post infection, one week
Method: The in vivo tests were preformed according to the following procedure:
Mouse Protection Assay: 10 mice/dose group (ICR-CD-1 female mice 18-20 grams, Charles River) were infected with a lethal dose (10^6 CFU/mouse) of S. aureus (ATCC 13709) suspended in 7.5% hog Gastric Mucin IP. The infected animals were treated at 1 h and 3 h post infection with either compound 12e (lactate salt) from 37 mg/kg down to 2.3 mg/kg or compound 14b (HCl salt) from 75 mg/kg down to 2.3 mg/kg (0.1 mL/mouse). The positive control drug was Vancomycin (Eli Lilly) 1 mg/kg.

[1] = Table 1, thiourea/urea analogs, acetate salts
[2] = Table 2, benzylamino group modified analogs
[3] = Klebsiella pneumoniae, ATCC13383; read-out: MIC K. pneumoniae ATCC 13383
[4] = Escherichia coli, ATCC25922; read-out: MIC E. coli ATCC 25922
[5] = Streptococcus pyogenes, ATCC49399; read-out: MIC S. pyogenes ATCC 49399
[6] = Proteus vulgaris, ATCC8427; read-out: MIC P. vulgaris ATCC 8427
[7] = Enterococcus faecalis, ATCC29212; read-out: MIC E. faecalis ATCC 29212
[8] = Enterococcus faecium, ATCC6569; read-out: MIC E. faecium ATCC 6569
[9] = Staphylococcus aureus, ATCC13709, Table 2, benzylamino group modified analogs, read-out: MIC S. aureus
[10] = Staphylococcus aureus, ATCC13709, Table 4, read-out: MIC S. aureus ATCC 13709
[11] = Pseudomonas aeruginosa, ATCC25416; read-out: MIC P. aeruginosa ATCC 25416
[12] = Table 2, benzylamino group modified analogs, read-out: MIC S. aureus

Structure (SMILES): CSc1ccc(NC(=O)NCCCNCc2cc(Br)cc(Br)c2)cc1 [9e]
- MIC S. aureus (S. aureus ATCC 13709; [1]): 25 to 50 µM

Structure (SMILES): O=C(NCCCNCc1cc(Br)cc(Br)c1)Nc1ccc(Cl)c(Cl)c1 [9f, 1-[3-(3,5-Dibromo-benzylamino)-propyl]-3-(3,4-dichloro-phenyl)-urea]
- MIC (K. pneumoniae ATCC 13383; Klebsiella pneumoniae, ATCC13383, read-out: MIC K. pneumoniae ATCC 13383): 6 to 12 µM (≈ 3.06 to 6.12 µg/mL)
- MIC (E. coli ATCC 25922; Escherichia coli, ATCC25922, read-out: MIC E. coli ATCC 25922): 12 to 25 µM (≈ 6.12 to 12.8 µg/mL)
- MIC (S. pyogenes ATCC 49399; Streptococcus pyogenes, ATCC49399, read-out: MIC S. pyogenes ATCC 49399): 6 to 12 µM (≈ 3.06 to 6.12 µg/mL)
- MIC (P. vulgaris ATCC 8427; Proteus vulgaris, ATCC8427, read-out: MIC P. vulgaris ATCC 8427): 12 to 25 µM (≈ 6.12 to 12.8 µg/mL)
- MIC (E. faecalis ATCC 29212; Enterococcus faecalis, ATCC29212, read-out: MIC E. faecalis ATCC 29212): 6 to 12 µM (≈ 3.06 to 6.12 µg/mL)
- MIC (E. faecium ATCC 6569; Enterococcus faecium, ATCC6569, read-out: MIC E. faecium ATCC 6569): > 100 µM
- MIC (S. aureus ATCC 13709; Staphylococcus aureus, ATCC13709, read-out: MIC S. aureus): 3 to 6 µM (≈ 1.53 to 3.06 µg/mL)
- MIC (S. aureus ATCC 13709; Staphylococcus aureus, ATCC13709, read-out: MIC S. aureus ATCC 13709): 3 to 6 µM (≈ 1.53 to 3.06 µg/mL)
- logP (log P): 4.89
- MIC (P. aeruginosa ATCC 25416; Pseudomonas aeruginosa, ATCC25416, read-out: MIC P. aeruginosa ATCC 25416): > 100 µM

Structure (SMILES): O=C(NCCCNCc1cc(Br)cc(Br)c1)Nc1ccc(OC(F)(F)F)cc1 [9g]
- MIC S. aureus (S. aureus ATCC 13709; [1]): 6 to 12 µM

Structure (SMILES): O=C(NCCCNCc1ccccc1OC(F)(F)F)Nc1ccc(C(F)(F)F)cc1 [12b]
- MIC S. aureus (S. aureus ATCC 13709; [2]): 12 to 25 µM

Structure (SMILES): O=C(NCCCNCc1cccc(-c2ccccc2)c1)Nc1ccc(C(F)(F)F)cc1 [12c]
- MIC S. aureus (S. aureus ATCC 13709; [2]): 6 to 12 µM

Structure (SMILES): O=C(NCCCNCc1ccc(OC(F)(F)F)cc1)Nc1ccc(C(F)(F)F)cc1 [12d]
- MIC S. aureus (S. aureus ATCC 13709; [2]): 3 to 6 µM

Structure (SMILES): COc1ccc(-c2ccc(CNCCCNC(=O)Nc3ccc(C(F)(F)F)cc3)cc2)cc1 [12f]
- MIC S. aureus (S. aureus ATCC 13709; [2]): 3 to 6 µM

Structure (SMILES): COc1ccccc1-c1ccc(CNCCCNC(=O)Nc2ccc(C(F)(F)F)cc2)cc1 [12g]
- MIC S. aureus (S. aureus ATCC 13709; [2]): 6 to 12 µM

Structure (SMILES): CC(C)(C)c1ccc(CNCCCNC(=O)Nc2ccc(C(F)(F)F)cc2)cc1 [12i, 1-[3-(4-tert-Butyl-benzylamino)-propyl]-3-(4-trifluoromethyl-phenyl)-urea]
- MIC (K. pneumoniae ATCC 13383; [3]): 3 to 6 µM (≈ 1.22 to 2.44 µg/mL)
- MIC (E. coli ATCC 25922; [4]): 6 to 12 µM (≈ 2.44 to 4.89 µg/mL)
- MIC (S. pyogenes ATCC 49399; [5]): 3 to 6 µM (≈ 1.22 to 2.44 µg/mL)
- MIC (P. vulgaris ATCC 8427; [6]): 12 to 25 µM (≈ 4.89 to 10.2 µg/mL)
- MIC (E. faecalis ATCC 29212; [7]): 6 to 12 µM (≈ 2.44 to 4.89 µg/mL)
- MIC (E. faecium ATCC 6569; [8]): 3 to 6 µM (≈ 1.22 to 2.44 µg/mL)
- MIC (S. aureus ATCC 13709; [9]): 3 to 6 µM (≈ 1.22 to 2.44 µg/mL)
- MIC (S. aureus ATCC 13709; [10]): 3 to 6 µM (≈ 1.22 to 2.44 µg/mL)
- logP (log P): 4.94
- MIC (P. aeruginosa ATCC 25416; [11]): > 100 µM

Structure (SMILES): CN(C)c1ccc(CNCCCNC(=O)Nc2ccc(C(F)(F)F)cc2)cc1 [12j]
- MIC S. aureus (S. aureus ATCC 13709; [2]): 12 to 25 µM

Structure (SMILES): CC(=O)Nc1ccc(CNCCCNC(=O)Nc2ccc(C(F)(F)F)cc2)cc1 [12k]
- MIC (S. aureus ATCC 13709; [12]): >100 µM

Structure (SMILES): O=C(NCCCNCc1cc(Cl)cc(Cl)c1)Nc1ccc(C(F)(F)F)cc1 [12m]
- MIC S. aureus (S. aureus ATCC 13709; [2]): 6 to 12 µM

Structure (SMILES): O=C(NCCCNCc1cc(F)cc(F)c1)Nc1ccc(C(F)(F)F)cc1 [12n]
- MIC S. aureus (S. aureus ATCC 13709; [2]): 50 to 100 µM

Structure (SMILES): O=C(NCCCNCc1cc(C(F)(F)F)cc(C(F)(F)F)c1)Nc1ccc(C(F)(F)F)cc1 [12o]
- MIC S. aureus (S. aureus ATCC 13709; [2]): 50 to 100 µM

Structure (SMILES): COc1cc(CNCCCNC(=O)Nc2ccc(C(F)(F)F)cc2)cc(OC)c1 [12p]
- MIC S. aureus (S. aureus ATCC 13709; [2]): 50 to 100 µM

Structure (SMILES): O=C(NCCCNCc1ccc(Cl)c(Cl)c1)Nc1ccc(C(F)(F)F)cc1 [12q]
- MIC S. aureus (S. aureus ATCC 13709; [2]): 3 to 6 µM

Structure (SMILES): O=C(NCCCNCc1cc(Br)cc(Br)c1O)Nc1ccc(C(F)(F)F)cc1 [12r]
- MIC (S. aureus ATCC 13709; [12]): >100 µM

Structure (SMILES): COc1cc(Br)cc(CNCCCNC(=O)Nc2ccc(C(F)(F)F)cc2)c1O [12t]
- MIC S. aureus (S. aureus ATCC 13709; [2]): 12 to 25 µM

Structure (SMILES): CCOc1ccc(Br)cc1CNCCCNC(=O)Nc1ccc(C(F)(F)F)cc1 [12u]
- MIC S. aureus (S. aureus ATCC 13709; [2]): 6 to 12 µM

Structure (SMILES): O=C(NCCCNCCCOc1ccc(Br)cc1Br)Nc1ccc(C(F)(F)F)cc1 [14a, 1-{3-[3-(2,4-Dibromo-phenoxy)-propylamino]-propyl}-3-(4-trifluoromethyl-phenyl)-urea]
- MIC (S. aureus ATCC 13709; [9]): 3 to 6 µM (≈ 1.66 to 3.32 µg/mL)

Structure (SMILES): O=C(NCCCNCc1ccc(Br)[nH]1)Nc1ccc(C(F)(F)F)cc1 [15e, 1-{3-[(5-bromo-1H-pyrrol-2-ylmethyl)-amino]-propyl}-3-(4-trifluoromethyl-phenyl)-urea]
- MIC (S. aureus ATCC 13709; Staphylococcus aureus, ATCC13709, Table 3, heteroaryl analogs, read-out: MIC S. aureus): 3 to 6 µM (≈ 1.26 to 2.52 µg/mL)

Structure (SMILES): CC(=O)NC[C@H]1CN(c2ccc(N3CCOCC3)c(F)c2)C(=O)O1 [Linezolide, reference compound]
- MIC (K. pneumoniae ATCC 13383; [3]): > 100 µM
- MIC (E. coli ATCC 25922; [4]): > 100 µM
- MIC (S. pyogenes ATCC 49399; [5]): 1.5 to 3 µM (≈ 0.506 to 1.01 µg/mL)
- MIC (P. vulgaris ATCC 8427; [6]): 12 to 25 µM (≈ 4.05 to 8.43 µg/mL)
- MIC (E. faecalis ATCC 29212; [7]): 3 to 6 µM (≈ 1.01 to 2.02 µg/mL)
- MIC (E. faecium ATCC 6569; [8]): > 100 µM
- MIC (S. aureus ATCC 13709; Staphylococcus aureus, ATCC13709, Table 1, thiourea/urea analogs, acetate salts, read-out: MIC S. aureus): 3 to 6 µM
- MIC (S. aureus ATCC 13709; [10]): 3 to 6 µM (≈ 1.01 to 2.02 µg/mL)
- MIC S. aureus (S. aureus ATCC 13709; [2]): 3 to 6 µM
- MIC (P. aeruginosa ATCC 25416; [11]): > 100 µM

Structure (SMILES): CN[C@H](CC(C)C)C(=O)N[C@H]1C(=O)N[C@@H](CC(N)=O)C(=O)N[C@H]2C(=O)N[C@H]3C(=O)N[C@H](C(=O)N[C@H](C(=O)O)c4cc(O)cc(O)c4-c4cc3ccc4O)[C@H](O)c3ccc(c(Cl)c3)Oc3cc2cc(c3O[C@@H]2O[C@H](CO)[C@@H](O)[C@H](O)[C@H]2O[C@H]2C[C@](C)(N)[C@H](O)[C@H](C)O2)Oc2ccc(cc2Cl)[C@H]1O [Vancomycin, reference compound]
- Mice Alive/Total (S. aureus (ATCC 13709)): 10/10

Structure (SMILES): CN(CCCNC(=O)Nc1ccc(C(F)(F)F)cc1)Cc1cc(Br)cc(Br)c1 [compound 13]
- MIC (S. aureus ATCC 13709; [12]): >100 µM
